Values of other authors in patent publication US8968755B2, “Topical base and active agent-containing compositions, and methods for improving and treating skin” (priority 2010, dated 2015).

## CCCCCCCCCCCCCCCCCCO [Stearyl alcohol, 1-octadecanol]
  solubility in water: insoluble in water
